# Test results from patent US12324802B2, “Modulators of cystic fibrosis transmembrane conductance regulator” (Vertex Pharmaceuticals Incorporated, priority 2020, dated 2025).
# Where two headings read alike, the source gives them in different places.
# Columns and labels:
# [1] = molecular target: T1, CFTR (F508del/MF-HBE cells) (Homo sapiens, UniProt P13569, DEL508-508); experiment: Ussing chamber assay of CFTR-mediated short-circuit currents (identification of potentiator compounds); assay type: cell-based; details: CFTR-mediated ISC in F508del/MF-HBE cells; incubated 18-24 hours at 37° C. with 10 μM (14S)-8-[3-(2-{dispiro[2.0.2.1]heptan-7-yl}ethoxy)-1H-pyrazol-1-yl]-...-2,2,4-trione, 20% human serum
# T1 construct: human bronchial epithelial (HBE) cells derived from CF subjects heterozygous for F508del and a minimal function CFTR mutation; endogenous in cells; host or cells: primary human bronchial epithelial cells from CF subjects (F508del/MF genotype)
# T1 sequence (P13569 with tags, fused parts or gaps DEL508-508): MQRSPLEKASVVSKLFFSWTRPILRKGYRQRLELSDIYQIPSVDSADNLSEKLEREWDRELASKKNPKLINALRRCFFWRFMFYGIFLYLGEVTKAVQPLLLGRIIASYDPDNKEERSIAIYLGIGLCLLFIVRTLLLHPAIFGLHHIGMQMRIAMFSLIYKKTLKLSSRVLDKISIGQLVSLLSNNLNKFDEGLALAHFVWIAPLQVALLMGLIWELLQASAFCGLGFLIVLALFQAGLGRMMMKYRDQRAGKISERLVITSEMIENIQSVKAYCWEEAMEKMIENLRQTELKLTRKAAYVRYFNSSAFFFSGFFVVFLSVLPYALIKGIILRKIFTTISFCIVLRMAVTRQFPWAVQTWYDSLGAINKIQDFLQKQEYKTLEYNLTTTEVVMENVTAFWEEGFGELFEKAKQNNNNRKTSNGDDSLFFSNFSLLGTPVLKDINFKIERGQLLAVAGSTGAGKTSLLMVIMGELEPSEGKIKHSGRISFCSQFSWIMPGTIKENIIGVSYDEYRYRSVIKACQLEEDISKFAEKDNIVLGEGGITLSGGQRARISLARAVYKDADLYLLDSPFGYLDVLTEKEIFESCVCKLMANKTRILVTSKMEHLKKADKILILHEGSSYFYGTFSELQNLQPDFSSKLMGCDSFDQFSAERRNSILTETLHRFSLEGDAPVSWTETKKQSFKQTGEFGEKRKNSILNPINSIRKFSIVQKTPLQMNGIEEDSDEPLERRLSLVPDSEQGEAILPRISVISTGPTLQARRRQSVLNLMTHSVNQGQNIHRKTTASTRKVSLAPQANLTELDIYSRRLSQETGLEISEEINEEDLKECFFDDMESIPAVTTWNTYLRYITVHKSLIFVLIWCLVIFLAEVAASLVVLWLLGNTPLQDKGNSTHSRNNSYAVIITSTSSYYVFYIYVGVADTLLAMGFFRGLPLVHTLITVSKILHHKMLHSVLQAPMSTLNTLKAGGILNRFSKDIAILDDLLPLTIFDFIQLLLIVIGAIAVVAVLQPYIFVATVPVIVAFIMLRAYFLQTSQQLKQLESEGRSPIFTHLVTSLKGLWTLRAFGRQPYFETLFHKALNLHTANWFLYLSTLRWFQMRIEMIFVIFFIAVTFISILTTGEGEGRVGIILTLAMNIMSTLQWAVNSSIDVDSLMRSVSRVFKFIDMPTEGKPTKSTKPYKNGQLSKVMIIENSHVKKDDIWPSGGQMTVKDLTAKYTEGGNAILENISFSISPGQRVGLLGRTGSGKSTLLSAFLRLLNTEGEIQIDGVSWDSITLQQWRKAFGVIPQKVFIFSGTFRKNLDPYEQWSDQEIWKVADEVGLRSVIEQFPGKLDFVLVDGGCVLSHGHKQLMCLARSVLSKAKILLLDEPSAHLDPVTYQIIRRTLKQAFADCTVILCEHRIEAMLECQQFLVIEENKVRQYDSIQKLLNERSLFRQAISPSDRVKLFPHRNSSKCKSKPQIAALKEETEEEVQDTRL
# Outline: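 Short-circuit current was voltage-clamped at 0 mV and 37 °C in pH 7.4 HEPES buffers, with amiloride (30 μM) on the apical side. The CFTR component was defined as forskolin (20 μM) peak minus residual current after BPO/GlyH-101/CFTRinh-172 at 20 μM each. Cells had been pretreated 18–24 h with potentiator concentrations and 10 μM corrector in 20% human serum, kept throughout the measurement.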
smiles,measurement,setting,value
CC(C)(C)OC(=O)Nc1cc(C(F)(F)F)c2nc1-c1nnc(o1)C(OCc1ccccc1)(C(F)(F)F)CCCC(=O)N1CCN2CC1 (stereo not shown),"ring closure, isolated yield","from CC(C)(C)OC(=O)Nc1cc(C(F)(F)F)c(N2CCNCC2)nc1-c1nnc(C(CCCC(=O)O)(OCc2ccccc2)C(F)(F)F)o1, amide bond, 15-membered ring, HATU/DIEA, DMF, 14.5 mM, 25.0 °C, 0.083 h",80%
CC(C)(C)OC(=O)Nc1cc(C(F)(F)F)c2nc1-c1nnc(o1)C(OCc1ccccc1)(C(F)(F)F)CCCCC1CCN2C1 (stereo not shown),"ring closure, isolated yield","from CC(C)(C)OC(=O)Nc1cc(C(F)(F)F)c(Br)nc1-c1nnc(C(CCCCC2CCNC2)(OCc2ccccc2)C(F)(F)F)o1, snar bond, 14-membered ring, DIEA, MeCN, 6.33 mM, 80.0 °C, 16.0 h",79%
CC1(C)CCCC(OCc2ccccc2)(C(F)(F)F)C(=O)NNC(=O)c2nc(c(C(F)(F)F)cc2[N+](=O)[O-])NCC1 (stereo not shown),"ring closure, isolated yield","from CC(C)(CCCC(OCc1ccccc1)(C(=O)O)C(F)(F)F)CCNc1nc(C(=O)O)c([N+](=O)[O-])cc1C(F)(F)F, crosslinker bond, 15-membered ring, hydrazine/BOP/HOAt/DIEA, DMF, 2.1 mM, 30.0 °C",84%
CC1(C)CCCOCC(OCc2ccccc2)(C(F)(F)F)C2=NN=C(O2)c2nc(c(C(F)(F)F)cc2[N+](=O)[O-])N1 (stereo not shown),"ring closure, isolated yield","from Cc1ccc(S(=O)(=O)Oc2nc(-c3nnc(C(COCCCC(C)(C)N)(OCc4ccccc4)C(F)(F)F)o3)c([N+](=O)[O-])cc2C(F)(F)F)cc1, snar bond, 14-membered ring, DIEA, DCM, 1.47 mM",45%
CC1(C)COCCCC(OCc2ccccc2)(C(F)(F)F)C(=O)NNC(=O)c2nc(c(C(F)(F)F)cc2[N+](=O)[O-])N1 (stereo not shown),"ring closure, isolated yield","from CC(C)(COCCCC(OCc1ccccc1)(C(=O)O)C(F)(F)F)Nc1nc(C(=O)NN)c([N+](=O)[O-])cc1C(F)(F)F, amide bond, 15-membered ring, BOP/HOBt/DIEA, DMF, 2.78 mM, 25.0 °C, 24.0 h",28%
O=[N+]([O-])c1cc(C(F)(F)F)c2nc1-c1nnc(o1)C(OCc1ccccc1)(C(F)(F)F)CCC=CCC(CO)N2 (stereo not shown),"ring closure, isolated yield","from C=CCCC(OCc1ccccc1)(c1nnc(-c2nc(NC(CO)CC=C)c(C(F)(F)F)cc2[N+](=O)[O-])o1)C(F)(F)F, rcm bond, 14-membered ring, Zhan-1B, DCE, 3.01 mM, 70.0 °C, 2.0 h",32%
O=[N+]([O-])c1cc(C(F)(F)F)c2nc1-c1nnc(o1)[C@@](OCc1ccccc1)(C(F)(F)F)CC=CCCC(C1CC1)N2 (stereo partly shown),"ring closure, isolated yield","from C=CCCC(Nc1nc(-c2nnc([C@@](CC=C)(OCc3ccccc3)C(F)(F)F)o2)c([N+](=O)[O-])cc1C(F)(F)F)C1CC1, rcm bond, 14-membered ring, Zhan catalyst-1B, DCE, 2.49 mM, 66.0 °C, 1.6 h",76%
CC(C)(C)OC(=O)Nc1cc(C(F)(F)F)c2nc1-c1nnc(o1)C(OCc1ccccc1)(C(F)(F)F)CCC=CCCC1CCCN21 (mixture of isomers),"ring closure, isolated yield","from C=CCCC1CCCN1c1nc(-c2nnc(C(CCC=C)(OCc3ccccc3)C(F)(F)F)o2)c(NC(=O)OC(C)(C)C)cc1C(F)(F)F, rcm bond, 15-membered ring, Zhan-1B (24 mol%), DCE, 4.89 mM, 70.0 °C, 16.0 h",53%
CC(C)(C)OC(=O)Nc1cc(C(F)(F)F)c2nc1-c1nnc(o1)C(OCc1ccccc1)(C(F)(F)F)CCC=CC[C@@H]1COCC(=O)N21 (mixture of isomers),"ring closure, isolated yield","from C=CCCC(OCc1ccccc1)(c1nnc(-c2nc(N3C(=O)COC[C@H]3CC=C)c(C(F)(F)F)cc2NC(=O)OC(C)(C)C)o1)C(F)(F)F, rcm bond, 14-membered ring, Zhan-1B, DCE, 3.35 mM, 75.0 °C, 4.0 h",73%
CC(C)C1CCC=CC[C@](OCc2ccccc2)(C(F)(F)F)C2=NN=C(O2)c2nc(c(C(F)(F)F)cc2[N+](=O)[O-])N1 (mixture of isomers),"ring closure, isolated yield","from C=CCCC(Nc1nc(-c2nnc([C@@](CC=C)(OCc3ccccc3)C(F)(F)F)o2)c([N+](=O)[O-])cc1C(F)(F)F)C(C)C, rcm bond, 14-membered ring, Zhan catalyst-1B, DCE, 15.4 mM, 70.0 °C",47%
CC1(C)CC2CC=Cc3ccc(F)c(c3)C(O)(C(F)(F)F)C3=NN=C(O3)c3nc(c(C(F)(F)F)cc3N(C(=O)OC(C)(C)C)C(=O)OC(C)(C)C)N2C1 (mixture of isomers),"ring closure, isolated yield","from C=CCC1CC(C)(C)CN1c1nc(-c2nnc(C(O)(c3cc(I)ccc3F)C(F)(F)F)o2)c(N(C(=O)OC(C)(C)C)C(=O)OC(C)(C)C)cc1C(F)(F)F, cc_pd bond, 15-membered ring, Pd(OAc)2/P(o-tol)3/Et3N, MeCN, 7.06 mM, 80.0 °C, 22.0 h",58%
CC1(C)CC=CCC(OCc2ccccc2)(C(F)(F)F)C2=NN=C(O2)c2nc(c(C(F)(F)F)cc2[N+](=O)[O-])NC1 (mixture of isomers),"ring closure, isolated yield","from C=CCC(C)(C)CNc1nc(-c2nnc(C(CC=C)(OCc3ccccc3)C(F)(F)F)o2)c([N+](=O)[O-])cc1C(F)(F)F, rcm bond, 14-membered ring, Zhan catalyst-1B, DCE, 2.0 mM, 80.0 °C, 16.0 h",14%
CC1(C)CCC=CC(F)(F)C(OCc2ccccc2)C2=NN=C(O2)c2nc(c(C(F)(F)F)cc2[N+](=O)[O-])N1 (mixture of isomers),"ring closure, isolated yield","from C=CCCC(C)(C)Nc1nc(-c2nnc(C(OCc3ccccc3)C(F)(F)C=C)o2)c([N+](=O)[O-])cc1C(F)(F)F, rcm bond, 14-membered ring, Grubbs II, 1,2-dichloroethane, 1.85 mM, 75.0 °C, 1.67 h",40%
CC1(C)CCC=CC[C@@](OCc2ccccc2)(C(F)(F)F)C2=NN=C(O2)c2nc(c(C(F)(F)F)cc2N(C(=O)OC(C)(C)C)C(=O)OC(C)(C)C)N1 (mixture of isomers),"ring closure, isolated yield","from C=CCCC(C)(C)Nc1nc(-c2nnc([C@](CC=C)(OCc3ccccc3)C(F)(F)F)o2)c(N(C(=O)OC(C)(C)C)C(=O)OC(C)(C)C)cc1C(F)(F)F, rcm bond, 14-membered ring, Zhan catalyst-1B, toluene, 8.66 mM, 70.0 °C, 3.0 h",62%
CC1(C)Nc2nc(c([N+](=O)[O-])cc2C(F)(F)F)C2=NN=C(O2)[C@@](OCc2ccccc2)(C(F)(F)F)CC=CCC1OCc1ccccc1 (mixture of isomers),"ring closure, isolated yield","from C=CCC(OCc1ccccc1)C(C)(C)Nc1nc(-c2nnc([C@@](CC=C)(OCc3ccccc3)C(F)(F)F)o2)c([N+](=O)[O-])cc1C(F)(F)F, rcm bond, 14-membered ring, Zhan catalyst-1B, DCE, 2.36 mM, 70.0 °C, 18.0 h",76%
CCOC(=O)C1CCC=CCC(OCc2ccccc2)(C(F)(F)F)C2=NN=C(O2)c2nc(c(C(F)(F)F)cc2[N+](=O)[O-])N1 (mixture of isomers),"ring closure, isolated yield","from C=CCCC(Nc1nc(-c2nnc(C(CC=C)(OCc3ccccc3)C(F)(F)F)o2)c([N+](=O)[O-])cc1C(F)(F)F)C(=O)OCC, rcm bond, 14-membered ring, Zhan-1B, DCE, 2.96 mM, 75.0 °C, 2.0 h",82%
COCC1CCC=CC[C@](OCc2ccccc2)(C(F)(F)F)C2=NN=C(O2)c2nc(c(C(F)(F)F)cc2[N+](=O)[O-])N1 (mixture of isomers),"ring closure, isolated yield","from C=CCCC(COC)Nc1nc(-c2nnc([C@@](CC=C)(OCc3ccccc3)C(F)(F)F)o2)c([N+](=O)[O-])cc1C(F)(F)F, rcm bond, 14-membered ring, Zhan catalyst-1B, DCE, 3.15 mM, 60.0 °C, 5.75 h",48%
O=[N+]([O-])c1cc(C(F)(F)F)c2nc1-c1nnc(o1)[C@@](OCc1ccccc1)(C(F)(F)F)CC=CCCC(c1ncco1)N2 (mixture of isomers),"ring closure, isolated yield","from C=CCCC(Nc1nc(-c2nnc([C@@](CC=C)(OCc3ccccc3)C(F)(F)F)o2)c([N+](=O)[O-])cc1C(F)(F)F)c1ncco1, rcm bond, 14-membered ring, Zhan catalyst-1B, DCE, 2.9 mM, 70.0 °C, 4.25 h",46%
"[2H]C([2H])([2H])C1(C([2H])([2H])[2H])CCCCC[C@](O)(C(F)(F)F)C2=NN=C(O2)c2nc(c(C(F)(F)F)cc2N)N1 [Compound 176, (6R)-17-amino-12,12-bis(trideuteriomethyl)-6,15-bis(trifluoromethyl)-19-oxa-3,4,13,18-tetrazatricyclo[12.3.1.12,5]nonadeca-1(18),2,4,14,16-pentaen-6-ol]",EC50,[1],< 0.5 µM
"Nc1cc(C(F)(F)F)c2nc1-c1nnc(o1)[C@@](O)(C(F)(F)F)CCCCCC1(CCCC1)N2 [Compound 177, (6R)-17-amino-6,15-bis(trifluoromethyl)spiro[19-oxa-3,4,13,18-tetrazatricyclo[12.3.1.12,5]nonadeca-1(18),2,4,14,16-pentaene-12,1′-cyclopentane]-6-ol]",EC50,[1],< 0.5 µM
"CC1(C)CNc2nc(c(N)cc2C(F)(F)F)C2=NN=C(O2)[C@@](O)(C(F)(F)F)CCCO1 [Compound 186, (6R)-17-amino-11,11-dimethyl-6,15-bis(trifluoromethyl)-10,19-dioxa-3,4,13,18-tetrazatricyclo[12.3.1.12,5]nonadeca-1(17),2,4,14(18),15-pentaen-6-ol]",EC50,[1],< 0.5 µM
"CC1(C)CCC[C@@H](O)C[C@](O)(C(F)(F)F)C2=NN=C(O2)c2nc(c(C(F)(F)F)cc2N)N1 [Compound 187, (6R,8R)-17-amino-12,12-dimethyl-6,15-bis(trifluoromethyl)-19-oxa-3,4,13,18-tetrazatricyclo[12.3.1.12,5]nonadeca-1(18),2,4,14,16-pentaene-6,8-diol]",EC50,[1],< 0.5 µM
"CC1(C)CCC[C@H](O)C[C@](O)(C(F)(F)F)C2=NN=C(O2)c2nc(c(C(F)(F)F)cc2N)N1 [Compound 188, (6R,8S)-17-amino-12,12-dimethyl-6,15-bis(trifluoromethyl)-19-oxa-3,4,13,18-tetrazatricyclo[12.3.1.12,5]nonadeca-1(18),2,4,14,16-pentaene-6,8-diol]",EC50,[1],< 0.5 µM
"Nc1cc(C(F)(F)F)c2nc1-c1nnc(o1)[C@@](O)(C(F)(F)F)CCCCCC1(CCCCC1)N2 [Compound 193, (6R)-17-amino-6,15-bis(trifluoromethyl)spiro[19-oxa-3,4,13,18-tetrazatricyclo[12.3.1.12,5]nonadeca-1(18),2,4,14,16-pentaene-12,1′-cyclohexane]-6-ol]",EC50,[1],< 0.5 µM
"Nc1cc(C(F)(F)F)c2nc1-c1nnc(o1)[C@@](O)(C(F)(F)F)CCCCCC1(CCOCC1)N2 [Compound 205, (6R)-17-amino-6,15-bis(trifluoromethyl)spiro[19-oxa-3,4,13,18-tetrazatricyclo[12.3.1.12,5]nonadeca-1(18),2,4,14,16-pentaene-12,4′-tetrahydropyran]-6-ol]",EC50,[1],< 0.5 µM
